Test results reported in paper PMC6337671, “Simultaneous Determination of Five Phenolic Acids and Four Flavonoid Glycosides in Rat Plasma Using HPLC-MS/MS and Its Application to a Pharmacokinetic Study after a Single Intravenous Administration of Kudiezi Injection” (Molecules, 2018).
Where two headings read alike, the source gives them in different places.

Assays:
[1] = Pharmacokinetic study in rats after a single intravenous administration of concentrated Kudiezi injection (HPLC-MS/MS of plasma); assay type: in vivo, Sprague-Dawley rats; details: single i.v. 3.6 mL/kg of 15 times concentrated KI, mean ± SD; for MRT last: n = 5, read-out: MRT0-t; for MRT inf: n = 5, read-out: MRT0-∞
Method: Eight male Sprague-Dawley rats (200 ± 20 g) were obtained from Laboratory Animal Center of Fujian Medical University (Fuzhou, China). The animal studies were conducted in accordance with the Guide for the Care and Use of Laboratory Animals published by the USA National Institutes of Health (NIH Publication No. 85-23, revised 1996) and were approved by the Animal Ethic Review Committee of Fujian Medical University (Fuzhou, China). The rats were housed in rat cages (48 × 29 × 18 cm^3), in a unidirectional airflow room at a temperature of 22 ± 2 °C, a relative humidity of 40–70% and a 12 h light/dark cycle. They were fed with freely available commercial food and filtered tap water, and fasted with free access to water for 12 h before the experiments. Three of these rats were selected randomly as blank group with the above mentioned feeding conditions and without administration of drug, and after 24 h from the beginning of the experiment, their blood was collected up exhaustively from abdominal aorta to provide blank plasma for methodological validation. […] All rats were acclimated to the facilities and environment for 7 days before the experiments.
After administration, the rat tail was carefully cleaned with alcohol soaked cotton balls around the injection site to remove the residual drug. Blood was collected from the cut-tail before dosing and at the following time points: 2.5, 5, 10, 15, 20, 30, 45 min and 1, 2, 3, 4, 6, 8, 12 and 24 h after dosing. Plasma was isolated from the blood samples by centrifugation and then stored at −80 °C until analysis.
Noncompartmental pharmacokinetic parameters were calculated by DAS 3.0 software (Version DAS 3.2.8, Chinese Pharmacologic Society, Beijing, China). All the results are expressed as mean ± SD. A single-tailed Student’s t test was performed in the work.

[2] = Stability of the nine components in rat plasma QC samples (auto-sampler, freeze-thaw, long-term); assay type: physicochemical; details: n = 5; for 6 h in Auto-Sample, RE: extracted rat plasma; for Freeze-Thaw Stability (Three Cycles), RE / Long-Term Stability (−80 °C, 14 Days), RE: rat plasma
Method: The stability of the nine components in rat plasma was investigated under a variety of storage and process conditions. Table 4 summarizes the results of post-preparation (The QC samples were kept in the auto-sampler for 6 h), freeze and thaw and long-term (at −80 °C for 14 days) stability experiments.
Stability of the nine components were assessed under the condition of placing extracted plasma samples in auto-sampler for 6 h, as well as placing plasma samples within freeze-thaw three cycles and at −80 °C for 14 days. LQC, MQC and HQC samples with five replicates at each level were kept at the above conditions and analyzed against freshly prepared calibrators as the reference.

[3] = test system: Mas-related G protein coupled receptor X2; parameters: method as in PMID 30048896; details: cited from earlier work
[4] = male, Sprague-Dawley, rat, plasma, iv, 3.6 mL/kg, n = 5
[5] = male, Sprague-Dawley, rat, plasma, iv, 3.6 mL/kg, n = 5, read-out: AUC0-t
[6] = male, Sprague-Dawley, rat, plasma, iv, 3.6 mL/kg
[7] = male, Sprague-Dawley, rat, plasma, iv, 3.6 mL/kg, n = 5, read-out: Vd
[8] = HQC spiked 2000 ng/mL (4000 ng/mL for II)
[9] = LQC spiked 15 ng/mL (30 ng/mL for II)
[10] = MQC spiked 500 ng/mL (1000 ng/mL for II)

Row | SMILES | AUC(0-inf) [1, 4] [ng·h/mL] | clearance [1, 4] [mL/min/kg] | half-life [1, 4] [min] | AUC(0-t) [1, 5] [ng·h/mL] | MRT last [1, 6] [h] | MRT inf [1, 6] [h] | Vd [1, 7] [L/kg] | 6 h in Auto-Sample, RE [2, 8] [%] | 6 h in Auto-Sample, RE [2, 9] [%] | 6 h in Auto-Sample, RE [2, 10] [%] | Freeze-Thaw Stability (Three Cycles), RE [2, 8] [%] | Long-Term Stability (−80 °C, 14 Days), RE [2, 8] [%] | Freeze-Thaw Stability (Three Cycles), RE [2, 9] [%] | Long-Term Stability (−80 °C, 14 Days), RE [2, 9] [%] | Freeze-Thaw Stability (Three Cycles), RE [2, 10] [%] | Long-Term Stability (−80 °C, 14 Days), RE [2, 10] [%] | identified as potential anaphylactoid component in KI [3] | further results
1 | O=C(O)/C=C/c1ccc(O)c(O)c1 [Compound V, caffeic acid] | 237 ± 43.6 | 34.7 | 365 ± 54 | 146 ± 40.8 | 4.09 ± 1.36 | 9.75 ± 1.7 | 17.9 ± 1.44 | −11.88 | −18.04 | −14.10 | −7.76 | 7.83 | −13.66 | −17.21 | −2.10 | −5.99 |  | 
2 | O=c1cc(-c2ccc(O)c(O)c2)oc2cc(O[C@@H]3O[C@H](CO[C@@H]4O[C@H](CO)[C@@H](O)[C@H](O)[C@H]4O)[C@@H](O)[C@H](O)[C@H]3O)cc(O)c12 [Compound VI, luteolin-7-O-β-D-gentiobioside] | 173 ± 15 | 128 | 13.8 ± 7.2 | 164 ± 8.34 | 0.2 ± 0.08 | 0.28 ± 0.15 | 2.51 ± 1.13 | 0.23 | −14.11 | −14.25 | 9.34 | −5.24 | −13.29 | −0.68 | −3.78 | 2.31 |  | 
3 | O=C(/C=C/c1ccc(O)c(O)c1)O[C@@H]1C[C@](O)(C(=O)O)C[C@@H](O)[C@H]1O [I, 5-caffeoylquinic acid] | 209 ± 75.7 | 49.8 | 133 ± 69 | 170 ± 55.7 | 2.29 ± 1.65 | 3.94 ± 2.71 | 8.22 ± 2.51 | −5.26 | −15.03 | −14.93 | −2.66 | −3.42 | −16.92 | −10.71 | −8.67 | −1.12 |  | 
4 | O=C(/C=C/c1ccc(O)c(O)c1)O[C@@H](C(=O)O)[C@@H](O)C(=O)O [II, caftaric acid] | 3080 ± 483 | 64.2 | 236 ± 28.2 | 2760 ± 400 | 3.84 ± 1.84 | 6.25 ± 2.83 | 22.1 ± 6.21 | 3.63 | −12.49 | −9.25 | 3.72 | −10.05 | −17.36 | 1.30 | 2.66 | −5.34 |  | 
5 | O=C(/C=C/c1ccc(O)c(O)c1)O[C@@H]1C[C@](O)(C(=O)O)C[C@@H](O)[C@H]1O [III, chlorogenic acid] |  |  |  |  |  |  |  | −2.78 | −7.40 | −14.11 | 2.98 | 2.07 | −18.29 | −1.71 | −5.77 | −1.20 |  | AUC0-∞ ([1]; rat plasma, n = 5): 199.84 ± 37.15 ng·h/mL; AUC(0-t) ([1]; rat plasma, n = 5): 155.43 ± 23.39 ng·h/mL; Cl ([1]; rat plasma, n = 5): 2.53 ± 0.43 L/h/kg; MRT0-t ([1]; rat plasma, n = 5): 3.30 ± 0.99 h; MRT0-∞ ([1]; rat plasma, n = 5): 5.93 ± 1.39 h; Vd ([1]; rat plasma, n = 5): 11.96 ± 3.10 L/kg; t1/2 ([1]; rat plasma, n = 5): 3.36 ± 0.97 h
6 | O=C(/C=C/c1ccc(O)c(O)c1)O[C@H]1[C@H](O)C[C@](O)(C(=O)O)C[C@H]1O [IV, 4-caffeoylquinic acid] | 209 ± 54 | 30.2 | 175 ± 67.8 | 160 ± 39.4 | 2.72 ± 1.32 | 5.07 ± 2.17 | 7.03 ± 1.29 | 6.12 | −14.16 | −15.00 | 6.55 | 2.14 | −14.73 | −10.44 | −0.15 | −1.40 |  | 
7 | O=C(O)[C@H]1O[C@@H](Oc2cc(O)c3c(=O)cc(-c4ccc(O)cc4)oc3c2)[C@H](O)[C@@H](O)[C@@H]1O [IX, apigenin-7-O-β-D-glucuronide] | 56.1 ± 8.49 | 168 | 4.2 ± 0.6 | 55.7 ± 8.5 | 0.09 ± 0.01 | 0.09 ± 0.01 | 1 ± 0.24 | 7.78 | −13.77 | −1.56 | 3.36 | 5.33 | −13.08 | −2.73 | 0.53 | −0.28 | potential anaphylactoid components | 
8 | O=C(O)[C@H]1O[C@@H](Oc2cc(O)c3c(=O)cc(-c4ccc(O)c(O)c4)oc3c2)[C@H](O)[C@@H](O)[C@@H]1O [VII, luteolin-7-O-β-D-glucuronide] | 680 ± 109 | 95.5 | 39.6 ± 12 | 672 ± 107 | 0.25 ± 0.11 | 0.3 ± 0.12 | 5.3 ± 1.21 | 5.65 | −7.74 | −12.46 | 9.76 | 8.01 | −10.80 | −2.91 | −1.08 | −0.26 | potential anaphylactoid components | 
9 | O=c1cc(-c2ccc(O)c(O)c2)oc2cc(O[C@@H]3O[C@H](CO)[C@@H](O)[C@H](O)[C@H]3O)cc(O)c12 [VIII, luteolin-7-O-β-D-glucoside] | 31 ± 2.09 | 138 | 7.8 ± 1.2 | 29.5 ± 2.38 | 0.09 ± 0.02 | 0.11 ± 0.02 | 1.51 ± 0.35 | 0.65 | −12.91 | −8.04 | 3.11 | 11.47 | −11.91 | −1.72 | 0.67 | 0.81 | potential anaphylactoid components | 
